Values of other authors as cited in US20240277627A1, “NOVEL FLUOROCHEMICAL CARDIAC RESUSCITATION” (NUVOX PHARMA LLC, priority 2023, published 2024).

metabolism / route of clearance (clears from the body via exhalation): not metabolized | terminal half-life (humans): about 90 minutes
Structure (SMILES): FC(F)(F)C(F)(F)C(F)(F)C(F)(F)C(F)(F)F [DDFP, n-dodecafluoropentane]
